The text below walks through data of patent US4939124A, “Treatment and diagnosis of dementia” (Laboratorios Serono S.A., priority 1988, dated 1990).

Assay [1] has as its system Male Wistar rats. Nature of the assay: Locomotor activity and learning in maze paradigm (escape from 1.5 mA shock area), i.c.v. injection. The class given is in vivo. The procedure:
The animals had to learn to escape from the shock area in order to avoid a continuous 1.5 mA electric shock. Experimental time --30 minutes.
The rats were treated intracerebroventricularly with SS-14 (1 mcg) and GRF1-44 (1 mcg) and their behavior was automatically recorded by computer using the maze paradigm shown in FIG. 1. p/t denotes pulses per time unit (minute). Locomotor activity was quantified in pulses per minute or cm^2 /min. Total inputs (I/O) in neutral position (white bars) and shock position (black bars) denote how many times the animals enter neutral and shock areas. The N/S ratio results from dividing I/O in neutral position by I/O in shock position and is interpreted as an index of learning in the 30-minute experimental period. The positional time (seconds) represents how long the animals stay in neutral (white bars) or shock (black bars) areas. N-sp and S-sp (in seconds) indicate the time-latency per movement or input in neutral (white bars) and shock (black bars) areas, respectively.
To clarify whether SS and GRF display at the central level the same antagonistic effect that they have at the pituitary level, the effects of these neuropeptides on several behavioral parameters have been studied using the OUCEM-86^TM (Osaka University Computerized Electronic Maze). The system is integrated by the following components: a Programmable Electronic Platform (PEP) (620×620 mm) equipped with 48 photo beam sensors (OPX-T30); a Programming Panel (PP) (Model BECM-0064) for paradigm stimulation; a Shock Generator Scrambler (SGS) (Model BSG-1065) to apply continuous or discontinuous electric current to the PEP; a Control Station (CS) (BEC 16-Bio Computer Control Station BCS-1105; Bio Medica, Ltd., Osaka) which processes inputs/outputs as an interface device to automatically computerize behavioral parameters; and a Computer System (NEC PC-9801 VM2) with 1 megabyte Random Access Memory (RAM) for data processing and experimental setting.
Male Wistar rats (175-200 g) (N =5-8 rats/group) received intracerebroventricular (i.c.v.) injections of GRF1-44 and SS-14 over a range of 0.1 to 10 mcg. Then the rats were studied in the OUCEM under two different paradigms (e.g., open field and maze paradigms).
The amount of inputs (I/O) induced by SS was 103.5±29.5 (control =216.25±55.19, t=8.49, p<0.005) in the neutral area (NA) and 77.14±13.5 I/O in the shock area (SA) (control =298±40, t=1.26, n.s.). GRF generated 459.35±32.5 I/O in NA (t=18.13, p<0.005) and 340.5±63.5 I/O in SA (t=9.07, p<0.005) (FIGS. 1C,3). The NA/SA (N/S) ratios for control, SS- and GRF-treated rats were 0.72, 1.33, and 1.35, respectively (FIG. 2).

For assay [2], the system named is Male Wistar rats. The assay is described as above. The class given is in vivo. Particulars: GRF1-44 5 mcg i.c.v., 30 minutes; control 17.12±5.42 pm.

Regarding growth hormone releasing factor [GRF], the “locomotor activity (LA), maze paradigm” value in the assay on Male Wistar rats [1] (1 mcg i.c.v., 30 minutes, control 17.12±5.42 pm) turned out to be 26.66±3.15 pm; with Male Wistar rats [2], 90.2±8.4 pm. Moreover, the “NA/SA (N/S) ratio (index of learning)” value in the assay with Male Wistar rats [1] (1 mcg i.c.v., control 0.72) was determined as 1.35. Also, the “amount of inputs (I/O) in the neutral area (NA)” value in the assay with Male Wistar rats [1] (1 mcg i.c.v., control 216.25±55.19) was determined as 459.35±32.5 I/O. In the assay with Male Wistar rats [1] (1 mcg i.c.v., control 298±40), the “amount of inputs (I/O) in the shock area (SA)” value was found to be 340.5±63.5 I/O. For the same substance, the “I/O rate and positional time in SA” value in the assay on Male Wistar rats [1] (GRF i.c.v., hyperkinetic syndrome, vs control group) is reported as “significantly higher than in the control group”. In the assay on Male Wistar rats [1] (doses of approximately 6.10×10^-10 mol (SS) and 1.98×10^-10 mol (GRF), i.c.v.), the “learning abilities (N/S ratio as index)” value is “improve learning abilities”.
